According to patent publication US20210395327A1, “Growth Hormone-Releasing Hormone Antagonists and Uses Thereof” (United States Government As Represented By The Department …, priority 2019, published 2021):
Non-standard residues stand in square brackets, D forms with d. Residues, ends and D or L forms follow the SMILES beside them. *: point of attachment. Phenylacetyl(2,3,4,5,6-F5) = O=C(Cc1c(F)c(F)c(F)c(F)c1F)*; Phe(F5) = N[C@@H](Cc1c(F)c(F)c(F)c(F)c1F)C(=O)O; Phe(4-Cl) = N[C@@H](Cc1ccc(Cl)cc1)C(=O)O; hArg = N=C(N)NCCCC[C@H](N)C(=O)O; 12Ado = NCCCCCCCCCCCC(=O)O; Nle = CCCC[C@H](N)C(=O)O; Orn = NCCC[C@H](N)C(=O)O; Abu = CC[C@H](N)C(=O)O; PhAc = O=C(Cc1ccccc1)*

Legend:
[1] = tested on: NCI-N87 stomach cancer cells; assay: In vitro cell viability (CellTiter 96), N87; format: cell-based, human; settings: for In vitro relative inhibitory potency in comparison to MIA-602, NCI-N87: Table 3B, 5 μM for 72 H, MIA-602 = 1
In short: (§1)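 Potency is reported as percent inhibition of viability compared with the reference antagonist MIA602, measured with CellTiter 96 aqueous one solution reagent. Serum-starved cells (0.5% FBS, 24 h) were treated for 72 h, mostly at 5 μM, otherwise 2 μM.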

HCC827 lung cancer cells = assay: In vitro cell viability, HCC827; format: cell-based, human; settings: for In vitro relative inhibitory potency in comparison to MIA-602, HCC827: Table 3B, 5 μM for 72 H, MIA-602 = 1
In short: as §1

[2] = tested on: lung cancer HCC827 xenograft; assay: Xenograft tumor growth in nude mice, HCC827; format: in vivo; settings: for % Inhibition: vs control
Method: The peptides' activity was compared with GHRH antagonist MIA-602. All statistical analyzses were performed from comparing GHRA antagonists to non-treated tumor (control).
Peptides and chemicals. GHRH antagonists MIA-602 and AVR-GHRH antagonists (see Table 2 above) were synthesized by solid phase methods and purified by HPLC. The peptides were dissolved in DMSO and further diluted in 10% 1,2-propanediol. The final concentration of peptides was 50 µg/ml in 10% 1,2-propanediol containing 0.1% of DMSO.
Cell culture. Human cancer cell lines including pancreatic (PANC-1 and CFPAC-1), lung (HCC827 and H460), stomach (NCI-N87), prostate (PC3), brest (MX-1 and HCC-1806), colorectal (HT-29), and ovarian (SK-OV-3 and OVCAR-3) were obtained from the American Type Culture Collection (ATCC) and cultured at 37° C. in a humidified 95% air/5% CO2 atmosphere in the medium recommended by ATCC.
Xenograft models of human cancers in nude mice. Female athymic (NCr nu/nu) nude mice, 5- to 6-weeks-old, obtained from the Envigo labs (Tampa, Fla.), were housed in laminar airflow cabinets under pathogen-free conditions with a 12-h light/12-h dark schedule, and were fed autoclaved standard chow and water. To generate mice with xenografted tumors, tumor xenografts were initiated by subcutaneous (s.c.) injection of 107 human cancer cells into female nude mice. After about 4 weeks the resulting tumors were dissected and collected after removing necrosis tissues. The tumors were then cut into particles with size of 3 mm3 and transplanted s.c. by trocar needle into experimental animals. When tumors grew to the size of 50-60 mm3 (by volume), mice were randomized into groups and treated daily for 4-8 weeks by subcutaneous administration of 5 μg of GHRH antagonists MIA-602 or AVR-compounds (2-10 μg as indicated), or vehicle solutions (0.1% DMSO in 10% 1,2-propanediol) respectively. Tumor sizes were measured weekly.
Statistical analysis. One-way ANOVA followed by Bonferroni comparison were performed. Data are expressed as Mean±SEM. To determine statistical significance between animal groups, two-tailed Student's t-test was conducted. Differences were considered significant when p<0.05.
Results. […] FIG. 1A-N represents in vivo inhibition of tumor growth during the treatment with GHRH antagonist MIA-602 and selected AVR antagonists in nude mice xenografted with various human tumors including pancreatic cancer PANC-1 (FIG. 1A) and CFPAC-1 (FIG. 1I); lung cancer HCC827 (FIGS. 1B, C) and H460 (FIG. 1H); stomach cancer N87 (FIGS. 1D-F); colon cancer HT-29 (FIG. 1G); breast cancer MX-1 and HCC-1806 (FIGS. 1J, K); ovarian cancer SK-OV-3 and OVACAR-3 (FIGS. 1 L, M) and prostate cancer PC3 (FIG. 1N). See also Table 5.

[3] = Table 4B, Lung Ca HCC827, 7 weeks, 5 μg/day s.c.
[4] = Table 4C, Lung Ca HCC827, 8 weeks, 2.5 μg/day s.c.
[5] = Table 4C, Lung Ca HCC827, 8 weeks, 5 μg/day s.c.
[6] = Table 4C, Lung Ca HCC827, 8 weeks, 10 μg/day s.c.
[7] = antagonist 5 μM for 72 h, cell proliferation assay, MIA602 = 1

Compound | In vitro relative inhibitory potency in comparison to MIA-602, NCI-N87 [1] | In vitro relative inhibitory potency in comparison to MIA-602, HCC827 (HCC827 lung cancer cells) | Tumor Growth % [2, 3] | % Inhibition [2, 3] | Tumor Growth % [2, 4] | % Inhibition [2, 4] | Tumor Growth % [2, 5] | % Inhibition [2, 5] | Tumor Growth % [2, 6] | % Inhibition [2, 6] | relative inhibitory potency in comparison to MIA-602, Stomach N87 [1, 7] | relative inhibitory potency in comparison to MIA-602, Lung IICC827 (HCC827 lung cancer cells; [7])
CCCC[C@H](NC(=O)[C@@H](NC(=O)[C@H](CC(=O)O)NC(=O)[C@H](CCC(N)=O)NC(=O)[C@H](CC(C)C)NC(=O)[C@H](CC(C)C)NC(=O)[C@H](CCCCN)NC(=O)[C@H](CCCNC(=N)N)NC(=O)[C@H](C)NC(=O)[C@H](CO)NC(=O)[C@H](CC(C)C)NC(=O)[C@H](CCC(N)=O)NC(=O)[C@H](CC)NC(=O)[C@H](CC(C)C)NC(=O)[C@@H](NC(=O)[C@H](CCCCN)NC(=O)[C@H](CCCNC(=N)N)NC(=O)[C@H](Cc1c(F)c(F)c(F)c(F)c1F)NC(=O)[C@H](CCCCNC(=N)N)NC(=O)[C@H](C)NC(=O)[C@@H](NC(=O)[C@H](Cc1ccc(Cl)cc1)NC(=O)[C@@H](NC(=O)[C@H](C)NC(=O)[C@H](CC(=O)O)NC(=O)[C@@H](CCCNC(=N)N)NC(=O)[C@H](Cc1ccc(O)cc1)NC(=O)CCCCCCCCCCCNC(=O)Cc1c(F)c(F)c(F)c(F)c1F)[C@@H](C)CC)[C@@H](C)O)C(C)C)[C@@H](C)CC)C(=O)N[C@H](CCCNC(=N)N)C(=O)N[C@@H](CCCCNC(=N)N)C(=O)NCCCCCCCCCCCC(N)=O [AVR-353, 5FPhAC-Ada-Tyr-DArg-Asp-Ala-Ile-Cpa-Thr-Ala-Har-5FPhe-Arg-Lys-Val-Leu-Abu-Gln-Leu-Ser-Ala-Arg-Lys-Leu-Leu-Gln-Asp-Ile-Nle-DArg-Har-Ada-NH2] ({Phenylacetyl(2,3,4,5,6-F5)-12Ado}-Y[dR]DAI[Phe(4-Cl)]TA[hArg][Phe(F5)]RKVL[Abu]QLSARKLLQDI[Nle][dR][hArg][12Ado]-NH2) | 3.404 | 1.641 | 380.3% | 71.0% | 545.65% | 35.1% | 420.79% | 50.0% | 359.16% | 57.3% |  | 
CCCC[C@H](NC(=O)[C@@H](NC(=O)[C@H](CC(=O)O)NC(=O)[C@H](CCC(N)=O)NC(=O)[C@H](CC(C)C)NC(=O)[C@H](CC(C)C)NC(=O)[C@H](CCCN)NC(=O)[C@H](Cc1c[nH]cn1)NC(=O)[C@H](C)NC(=O)[C@H](CO)NC(=O)[C@H](CC(C)C)NC(=O)[C@H](CCC(N)=O)NC(=O)[C@H](CC)NC(=O)[C@H](CC(C)C)NC(=O)[C@@H](NC(=O)[C@H](CCCN)NC(=O)[C@H](Cc1c[nH]cn1)NC(=O)[C@H](Cc1c(F)c(F)c(F)c(F)c1F)NC(=O)[C@H](CCCCNC(=N)N)NC(=O)[C@H](C)NC(=O)[C@@H](NC(=O)[C@H](Cc1ccc(Cl)cc1)NC(=O)[C@@H](NC(=O)[C@H](C)NC(=O)[C@H](CC(=O)O)NC(=O)[C@@H](CCCNC(=N)N)NC(=O)[C@H](Cc1ccc(O)cc1)NC(=O)CCCCCCCCCCCNC(=O)Cc1c(F)c(F)c(F)c(F)c1F)[C@@H](C)CC)[C@@H](C)O)C(C)C)[C@@H](C)CC)C(=O)N[C@H](CCCNC(=N)N)C(=O)N[C@@H](CCCCNC(=N)N)C(=O)NCCCCCCCCCCCC(=O)NC [AVR-543, 5FPhAC-Ada-Tyr-DArg-Asp-Ala-Ile-Cpa-Thr-Ala-Har-5FPhe-His-Orn-Val-Leu-Abu-Gln-Leu-Ser-Ala-His-Orn-Leu-Leu-Gln-Asp-Ile-Nle-DArg-Har-Ada-NHCH3] ({Phenylacetyl(2,3,4,5,6-F5)-12Ado}-Y[dR]DAI[Phe(4-Cl)]TA[hArg][Phe(F5)]H[Orn]VL[Abu]QLSAH[Orn]LLQDI[Nle][dR][hArg][12Ado]-NHMe) | 0.908 | 0.961 | 806.0% | 38.6% |  |  |  |  |  |  |  | 
CCCC[C@H](NC(=O)[C@@H](NC(=O)[C@H](CC(=O)O)NC(=O)[C@H](CCC(N)=O)NC(=O)[C@H](CC(C)C)NC(=O)[C@H](CC(C)C)NC(=O)[C@H](CCCN)NC(=O)[C@H](Cc1c[nH]cn1)NC(=O)[C@H](C)NC(=O)[C@H](CO)NC(=O)[C@H](CC(C)C)NC(=O)[C@H](CCC(N)=O)NC(=O)[C@H](CC)NC(=O)[C@H](CC(C)C)NC(=O)[C@@H](NC(=O)[C@H](CCCN)NC(=O)[C@H](Cc1c[nH]cn1)NC(=O)[C@H](Cc1ccc(OC)cc1)NC(=O)[C@H](CCCCNC(=N)N)NC(=O)[C@H](C)NC(=O)[C@@H](NC(=O)[C@H](Cc1c(F)c(F)c(F)c(F)c1F)NC(=O)[C@@H](NC(=O)[C@H](C)NC(=O)[C@H](CC(=O)O)NC(=O)[C@@H](CCCNC(=N)N)NC(=O)[C@H](Cc1ccc(O)cc1)NC(=O)CCCCCCCCCCCNC(=O)Cc1c(F)c(F)c(F)c(F)c1F)[C@@H](C)CC)[C@@H](C)O)C(C)C)[C@@H](C)CC)C(=O)N[C@H](CCCNC(=N)N)C(=O)N[C@@H](CCCCNC(=N)N)C(=O)NCCCCCCCCCCCC(N)=O [AVR-553, 5FPhAC-Ada-Tyr-DArg-Asp-Ala-Ile-5FPhe-Thr-Ala-Har-Tyr(Me)-His-Orn-Val-Leu-Abu-Gln-Leu-Ser-Ala-His-Orn-Leu-Leu-Gln-Asp-Ile-Nle-DArg-Har-Ada-NH2] ({Phenylacetyl(2,3,4,5,6-F5)-12Ado}-Y[dR]DAI[Phe(F5)]TA[hArg]Y(Me)H[Orn]VL[Abu]QLSAH[Orn]LLQDI[Nle][dR][hArg][12Ado]-NH2) | 1.26 | 2.582 | 1132.0% | 13.7% |  |  |  |  |  |  |  | 
CCCC[C@H](NC(=O)[C@@H](NC(=O)[C@H](CC(=O)O)NC(=O)[C@H](CCC(N)=O)NC(=O)[C@H](CC(C)C)NC(=O)[C@H](CC(C)C)NC(=O)[C@H](CCCN)NC(=O)[C@H](Cc1c[nH]cn1)NC(=O)[C@H](C)NC(=O)[C@H](CO)NC(=O)[C@H](CC(C)C)NC(=O)[C@H](CCC(N)=O)NC(=O)[C@H](CC)NC(=O)[C@H](CC(C)C)NC(=O)[C@@H](NC(=O)[C@H](CCCN)NC(=O)[C@H](Cc1c[nH]cn1)NC(=O)[C@H](Cc1ccc(OC)cc1)NC(=O)[C@H](CCCCNC(=N)N)NC(=O)[C@H](C)NC(=O)[C@@H](NC(=O)[C@H](Cc1c(F)c(F)c(F)c(F)c1F)NC(=O)[C@@H](NC(=O)[C@H](C)NC(=O)[C@H](CC(=O)O)NC(=O)[C@@H](CCCNC(=N)N)NC(=O)[C@H](Cc1ccc(O)cc1)NC(=O)CCCCCCCCCCCNC(=O)Cc1ccccc1)[C@@H](C)CC)[C@@H](C)O)C(C)C)[C@@H](C)CC)C(=O)N[C@H](CCCNC(=N)N)C(=O)N[C@@H](CCCCNC(=N)N)C(N)=O [MIA-602, PhAC-Ada, Tyr D-Arg, Asp, Ala, Ile, 5FPhe, Thr, Ala, Har, Tyr(Me), His, Orn, Val, Leu, Abu, Gin, Leu, Ser, Ala, His, Om, Leu, Leu, Gin, Asp, Ile; Nle, D-Arg, Har NH2, reference compound] ({PhAc-12Ado}-Y[dR]DAI[Phe(F5)]TA[hArg]Y(Me)H[Orn]VL[Abu]QLSAH[Orn]LLQDI[Nle][dR][hArg]-NH2) | 1 | 1 | 662.2% | 49.5% |  |  |  |  |  |  | 1 | 1
